Results as given in patent US10301280B2 (Plexxikon Inc., priority 2012, dated 2019).

target: c-kit mutant D816V (Homo sapiens (Human), UniProt P10721, D816V/DEL694-753); assay: c-Kit mutant D816V biochemical assay (AlphaScreen); conditions: c-kit D816V biochemical inhibitory activity
Method in brief: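 His-tagged c-Kit D816V kinase domain (551-934, Δ694-753, E. coli) phosphorylating 30 nM biotin-(E4Y)10 at 10 μM ATP in HEPES pH 7.2 with Mg/Mn, 5% DMSO, 30 min at room temperature. PY20-acceptor/streptavidin-donor AlphaScreen detection after EDTA stop. IC50 from 8-point 1:3 titration.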

c-kit mutant D816V, sequence (P10721 other isoform, or with tags, fused parts or gaps D816V/del 694-753): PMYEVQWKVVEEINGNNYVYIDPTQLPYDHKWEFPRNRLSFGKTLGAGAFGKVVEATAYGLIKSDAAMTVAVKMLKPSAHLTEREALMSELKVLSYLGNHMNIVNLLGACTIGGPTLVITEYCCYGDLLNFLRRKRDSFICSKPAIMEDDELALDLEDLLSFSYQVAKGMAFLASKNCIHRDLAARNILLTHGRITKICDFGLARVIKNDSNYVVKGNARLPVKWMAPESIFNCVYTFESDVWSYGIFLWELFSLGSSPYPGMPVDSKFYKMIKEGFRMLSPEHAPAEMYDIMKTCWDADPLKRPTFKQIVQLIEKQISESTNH

| Compound | IC50 [µM] |
| --- | --- |
| Cc1n[nH]c(C(=O)Nc2cnc3[nH]c(-c4ccnc(C(C)C)c4)cc3c2)c1C [P-2163, N-[2-(2-isopropyl-4-pyridyl)-1H-pyrrolo[2,3-b]pyridin-5-yl]-3,4-dimethyl-1H-pyrazole-5-carboxamide] | 0.0001 to 1 |
| [2H]c1c([2H])c([2H])c(-c2cc3cc(NC(=O)c4[nH]nc(C)c4C)cnc3[nH]2)c([2H])c1[2H] [P-2164, 3,4-dimethyl-N-[2-(2,3,4,5,6-pentadeuteriophenyl)-1H-pyrrolo[2,3-b]pyridin-5-yl]-1H-pyrazole-5-carboxamide] | 0.0001 to 1 |
| Cc1n[nH]c(C(=O)Nc2cnc3[nH]c(-c4c(C)nn(C)c4C)cc3c2)c1C [P-2165, 3,4-dimethyl-N-[2-(1,3,5-trimethylpyrazol-4-yl)-1H-pyrrolo[2,3-b]pyridin-5-yl]-1H-pyrazole-5-carboxamide] | 1 to 10 |
| Cc1n[nH]c(C(=O)Nc2cnc3[nH]nc(-c4cccc(N5CCNCC5)c4)c3c2)c1C [P-2166, 3,4-dimethyl-N-[3-(3-piperazin-1-ylphenyl)-1H-pyrazolo[3,4-b]pyridin-5-yl]-1H-pyrazole-5-carboxamide] | 0.0001 to 1 |
| Cc1n[nH]c(C(=O)Nc2cnc3[nH]c(-c4c(C)n[nH]c4C)cc3c2)c1C [P-2167, N-[2-(3,5-dimethyl-1H-pyrazol-4-yl)-1H-pyrrolo[2,3-b]pyridin-5-yl]-3,4-dimethyl-1H-pyrazole-5-carboxamide] | 0.0001 to 1 |
| Cc1nn(C2COC2)cc1-c1cc2cc(NC(=O)c3[nH]nc(C)c3C)cnc2[nH]1 [P-2168, 3,4-dimethyl-N-[2-[3-methyl-1-(oxetan-3-yl)pyrazol-4-yl]-1H-pyrrolo[2,3-b]pyridin-5-yl]-1H-pyrazole-5-carboxamide] | 0.0001 to 1 |
| Cc1n[nH]c(C(=O)Nc2cnc3[nH]c(-c4ccc(F)c(-c5nn[nH]n5)c4)cc3c2)c1C [P-2174, N-[2-[4-fluoro-3-(2H-tetrazol-5-yl)phenyl]-1H-pyrrolo[2,3-b]pyridin-5-yl]-3,4-dimethyl-1H-pyrazole-5-carboxamide] | 0.0001 to 1 |
| Cc1n[nH]c(C(=O)Nc2cnc3[nH]c(-c4cccnc4C(F)(F)F)cc3c2)c1C [P-2176, 3,4-dimethyl-N-[2-[2-(trifluoromethyl)-3-pyridyl]-1H-pyrrolo[2,3-b]pyridin-5-yl]-1H-pyrazole-5-carboxamide] | 0.0001 to 1 |
| CCc1cc(-c2cc3cc(NC(=O)c4[nH]nc(C)c4C)cnc3[nH]2)ccn1 [P-2177, N-[2-(2-ethyl-4-pyridyl)-1H-pyrrolo[2,3-b]pyridin-5-yl]-3,4-dimethyl-1H-pyrazole-5-carboxamide] | 0.0001 to 1 |
| CCc1ccc(-c2cc3cc(NC(=O)c4[nH]nc(C)c4C)cnc3[nH]2)cn1 [P-2178, N-[2-(6-ethyl-3-pyridyl)-1H-pyrrolo[2,3-b]pyridin-5-yl]-3,4-dimethyl-1H-pyrazole-5-carboxamide] | 0.0001 to 1 |
| Cc1n[nH]c(C(=O)Nc2cnc3[nH]c(-c4ccnc5c4OCCO5)cc3c2)c1C [P-2179, N-[2-(2,3-dihydro-[1,4]dioxino[2,3-b]pyridin-8-yl)-1H-pyrrolo[2,3-b]pyridin-5-yl]-3,4-dimethyl-H-pyrazole-5-carboxamide] | 0.0001 to 1 |
| Cc1n[nH]c(C(=O)Nc2cnc3[nH]c(-c4ccccc4C(F)(F)F)cc3c2)c1C [P-2180, 3,4-dimethyl-N-[2-[2-(trifluoromethyl)phenyl]-1H-pyrrolo[2,3-b]pyridin-5-yl]-1H-pyrazole-5-carboxamide] | 0.0001 to 1 |
| Cc1ccc(-c2cc3cc(NC(=O)c4[nH]nc(C)c4C)cnc3[nH]2)c(C)c1 [P-2181, N-[2-(2,4-dimethylphenyl)-1H-pyrrolo[2,3-b]pyridin-5-yl]-3,4-dimethyl-1H-pyrazole-5-carboxamide] | 0.0001 to 1 |
| Cc1n[nH]c(C(=O)Nc2cnc3[nH]c(-c4ccccc4OC(F)(F)F)cc3c2)c1C [P-2182, 3,4-dimethyl-N-[2-[2-(trifluoromethoxy)phenyl]-1H-pyrrolo[2,3-b]pyridin-5-yl]-1H-pyrazole-5-carboxamide] | 0.0001 to 1 |
| COc1cncc(-c2cc3cc(NC(=O)c4[nH]nc(C)c4C)cnc3[nH]2)c1 [P-2183, N-[2-(5-methoxy-3-pyridyl)-1H-pyrrolo[2,3-b]pyridin-5-yl]-3,4-dimethyl-1H-pyrazole-5-carboxamide] | 0.0001 to 1 |
| Cc1cncc(-c2cc3cc(NC(=O)c4[nH]nc(C)c4C)cnc3[nH]2)c1 [P-2184, 3,4-dimethyl-N-[2-(5-methyl-3-pyridyl)-1H-pyrrolo[2,3-b]pyridin-5-yl]-1H-pyrazole-5-carboxamide] | 0.0001 to 1 |
| Cc1n[nH]c(C(=O)Nc2cnc3[nH]c(-c4ccnc(N5CCN(S(C)(=O)=O)CC5)c4)cc3c2)c1C [P-2186, 3,4-dimethyl-N-[2-[2-(4-methylsulfonylpiperazin-1-yl)-4-pyridyl]-1H-pyrrolo[2,3-b]pyridin-5-yl]-1H-pyrazole-5-carboxamide] | 0.0001 to 1 |
| Cc1n[nH]c(C(=O)Nc2cnc3[nH]c(-c4ccnc(N5CCN(C(=O)C6CC6)CC5)c4)cc3c2)c1C [P-2187, N-[2-[2-[4-(cyclopropanecarbonyl)piperazin-1-yl]-4-pyridyl]-1H-pyrrolo[2,3-b]pyridin-5-yl]-3,4-dimethyl-1H-pyrazole-5-carboxamide] | 0.0001 to 1 |

| Compound | IC50 [µM] |
| --- | --- |
| Cc1n[nH]c(C(=O)Nc2cnc3[nH]c(-c4ccnc(N5CCN(C(=O)CC#N)CC5)c4)cc3c2)c1C [P-2189, N-[2-[2-[4-(2-cyanoacetyl)piperazin-1-yl]-4-pyridyl]-1H-pyrrolo[2,3-b]pyridin-5-yl]-3,4-dimethyl-1H-pyrazole-5-carboxamide] | 0.0001 to 1 |
| Cc1n[nH]c(C(=O)Nc2cnc3[nH]c(-c4ccc(F)cc4OC(F)F)cc3c2)c1C [P-2268, N-[2-[2-(difluoromethoxy)-4-fluoro-phenyl]-1H-pyrrolo[2,3-b]pyridin-5-yl]-3,4-dimethyl-1H-pyrazole-5-carboxamide] | 0.0001 to 1 |
| Cc1n[nH]c(C(=O)Nc2cnc3[nH]c(-c4cncc(C#N)c4)cc3c2)c1C [P-2270, N-[2-(5-cyano-3-pyridyl)-1H-pyrrolo[2,3-b]pyridin-5-yl]-3,4-dimethyl-1H-pyrazole-5-carboxamide] | 0.0001 to 1 |
| Cc1n[nH]c(C(=O)Nc2cnc3[nH]c(C4=CCOCC4)cc3c2)c1C [P-2271, N-[2-(3,6-dihydro-2H-pyran-4-yl)-1H-pyrrolo[2,3-b]pyridin-5-yl]-3,4-dimethyl-1H-pyrazole-5-carboxamide] | 0.0001 to 1 |
| Cc1n[nH]c(C(=O)Nc2cnc3[nH]c(-c4cnccc4C(N)=O)cc3c2)c1C [P-2272, 3-[5-[(3,4-dimethyl-1H-pyrazole-5-carbonyl)amino]-1H-pyrrolo[2,3-b]pyridin-2-yl]pyridine-4-carboxamide] | 0.0001 to 1 |
| Cc1n[nH]c(C(=O)Nc2cnc3[nH]c(-c4cccc5c4OCC5)cc3c2)c1C [P-2273, N-[2-(2,3-dihydrobenzofuran-7-yl)-1H-pyrrolo[2,3-b]pyridin-5-yl]-3,4-dimethyl-H-pyrazole-5-carboxamide] | 0.0001 to 1 |
| Cc1n[nH]c(C(=O)Nc2cnc3[nH]c(-c4cccc(N5CCNCC5)c4)cc3c2)c1C [P-2274, 3,4-dimethyl-N-[2-(3-piperazin-1-ylphenyl)-1H-pyrrolo[2,3-b]pyridin-5-yl]-1H-pyrazole-5-carboxamide] | 0.0001 to 1 |
| Cc1cc(Cl)ccc1-c1cc2cc(NC(=O)c3[nH]nc(C)c3C)cnc2[nH]1 [P-2277, N-[2-(4-chloro-2-methyl-phenyl)-1H-pyrrolo[2,3-b]pyridin-5-yl]-3,4-dimethyl-1H-pyrazole-5-carboxamide] | 0.0001 to 1 |
| Cc1n[nH]c(C(=O)Nc2cnc3[nH]c(-c4ccncc4Cl)cc3c2)c1C [P-2278, N-[2-(3-chloro-4-pyridyl)-H-pyrrolo[2,3-b]pyridin-5-yl]-3,4-dimethyl-1H-pyrazole-5-carboxamide] | 0.0001 to 1 |
| Cc1n[nH]c(C(=O)Nc2cnc3[nH]c(-c4ccc(F)nc4F)cc3c2)c1C [P-2280, N-[2-(2,6-difluoro-3-pyridyl)-1H-pyrrolo[2,3-b]pyridin-5-yl]-3,4-dimethyl-1H-pyrazole-5-carboxamide] | 0.0001 to 1 |
| Cc1n[nH]c(C(=O)Nc2cnc3[nH]c(-c4cccc5c4OC(F)(F)O5)cc3c2)c1C [P-2281, N-[2-(2,2-difluoro-1,3-benzodioxol-4-yl)-1H-pyrrolo[2,3-b]pyridin-5-yl]-3,4-dimethyl-1H-pyrazole-5-carboxamide] | 0.0001 to 1 |
| Cc1cc(-c2cc3cc(NC(=O)c4[nH]nc(C)c4C)cnc3[nH]2)cnc1C [P-2282, N-[2-(5,6-dimethyl-3-pyridyl)-1H-pyrrolo[2,3-b]pyridin-5-yl]-3,4-dimethyl-1H-pyrazole-5-carboxamide] | 0.0001 to 1 |
| COc1ccc(-c2cc3cc(NC(=O)c4[nH]nc(C)c4C)cnc3[nH]2)c(C)c1C [P-2284, N-[2-(4-methoxy-2,3-dimethyl-phenyl)-1H-pyrrolo[2,3-b]pyridin-5-yl]-3,4-dimethyl-1H-pyrazole-5-carboxamide] | 0.0001 to 1 |
| Cc1nn(C2CN(C(=O)OC(C)(C)C)C2)cc1-c1cc2cc(NC(=O)c3[nH]nc(C)c3C)cnc2[nH]1 [P-2285, tert-butyl 3-[4-[5-[(3,4-dimethyl-1H-pyrazole-5-carbonyl)amino]-1H-pyrrolo[2,3-b]pyridin-2-yl]-3-methyl-pyrazol-1-yl]azetidine-1-carboxylate] | 0.0001 to 1 |
| Cc1nn(C2CNC2)cc1-c1cc2cc(NC(=O)c3[nH]nc(C)c3C)cnc2[nH]1 [P-2286, N-[2-[1-(azetidin-3-yl)-3-methyl-pyrazol-4-yl]-1H-pyrrolo[2,3-b]pyridin-5-yl]-3,4-dimethyl-1H-pyrazole-5-carboxamide] | 0.0001 to 1 |
| O=C(Nc1cnc2[nH]c(-c3ccccc3)cc2c1)c1cccc2n[nH]cc12 [P-2289, N-(2-phenyl-1H-pyrrolo[2,3-b]pyridin-5-yl)-2H-indazole-4-carboxamide] | 1 to 10 |
| COC(=O)c1cccc(C(=O)Nc2cnc3[nH]c(-c4ccccc4)cc3c2)c1 [P-2290, methyl 3-[(2-phenyl-1H-pyrrolo[2,3-b]pyridin-5-yl)carbamoyl]benzoate] | 10 to 200 |
